Measurements as given in PMC11606603, “The membrane domains of mammalian adenylyl cyclases are lipid receptors” (eLife, 2024).
Values joined by “and” are separate entries in the source; they are usually repeats but may differ in a detail not shown here. Equal entries are not always repeated.

What was measured:
Format in all cases: biochemical
mAC3 = target: T1, mAC3 (Homo sapiens, UniProt O60266); assay: AC assay, Gsα-stimulated mAC3 in membranes from transfected HEK293 cells; settings: for mAC3 activity [%] (100% = 300nM Gsα stimulation): fatty acid 20 µM, individual experiments; for Effect of lipid on 300 nM Gsα-stimulated mAC3: 20 µM, in words
T1 construct: Human mAC genes were from GenScript and fitted with a C-terminal FLAG-tag; FLAG (C); made in house; host or cells: HEK293, permanently transfected; membrane preparation
Experimental: (§1) hAC sequences were from NCBI were: ADCY1: NM_021116.3; ADCY2: NM_020546.2; ADCY3: NM_004036.4; ADCY4: NM_001198568.2; ADCY5: NM_183357.2; ADCY6: NM_015270.4; ADCY7: NM_001114.4; ADCY8: NM_001115.2; ADCY9: NM_001116.3. Human mAC genes were from GenScript and fitted with a C-terminal FLAG-tag. […] The gene was synthesized by GenScript. HEK293 cells were maintained in Dulbeccos Modified Eagle Medium (DMEM) with 10% fetal bovine serum at 37°C and 5% CO2. Transfection with AC plasmids was with PolyJet (SignaGen, Frederick, MD, USA). Permanent cell lines were generated by selection for 7 days with 600 µg/ml G418 and maintained with 300 µg/ml For membrane preparation, cells were tyrpsinized, collected by centrifugation (3000 × g, 5 min) and lysed and homogenized in 20 mM HEPES, pH 7.5, 1 mM Ethylenediaminetetraacetic acid (EDTA), 2 mM MgCl2, 1 mM Dithiothreitol (DTT), one tablet of cOmplete, EDTA-free (per 50 ml) and 250 mM sucrose by 20 strokes in a potter homogenizer on ice. Debris was removed (5 min at 1000 × g, 0°C), membranes were collected at 100,000 × g, 60 min at 0°C, suspended and stored at −80°C in 20 mM MOPS, pH 7.5, 0.5 mM EDTA, 2 mM MgCl2. […] Three cerebral cortices were dissected and homogenized in 4.5 ml cold 48 mM Tris–HCl, pH 7.4, 12 mM MgC1_2, and 0.1 mM Ethylene glycol-bis(β-aminoethyl ether)-N,N,N′,N′-tetraacetic acid (EGTA) with a Polytron hand disperser (Kinematica AG, Switzerland). […] The pellet was washed once with 5 ml 1 mM KHCO3. The final suspension in 2 ml 1 mM KHCO3 was stored in aliquots at −80°C.
(§2) In a volume of 10 μl, AC activities were measured using 1 mM ATP, 2 mM MgCl2, 3 mM creatine phosphate, 60 μg/ml creatine kinase, and 50 mM MOPS pH 7.5. The cAMP assay kit from Cisbio (Codolet, France) was used for detection according to the supplier’s instructions. For each assay, a cAMP standard curve was established. EC50 and IC50 values were calculated by GraphPad Prism version 8.4.3 for Windows, GraphPad Software, San Diego, CA, USA, https://www.graphpad.com .

mAC2 = target: T2, mAC2 (Homo sapiens, UniProt Q08462); assay: AC assay, Gsα-stimulated mAC2 in membranes from transfected HEK293 cells; settings: Figure 5-figure supplement 1 left, 20 µM
T2 construct: Human mAC genes were from GenScript and fitted with a C-terminal FLAG-tag; FLAG (C); made in house; host or cells: HEK293, permanently transfected; membrane preparation
Experimental: as §1, §2

mAC7 = target: T3, mAC7 (Homo sapiens, UniProt P51828); assay: AC assay, Gsα-stimulated mAC7 in membranes from transfected HEK293 cells; settings: Figure 5-figure supplement 2 left, 20 µM
T3 construct: Human mAC genes were from GenScript and fitted with a C-terminal FLAG-tag; FLAG (C); made in house; host or cells: HEK293, permanently transfected; membrane preparation
Experimental: as §1, §2

mAC5 = target: T4, mAC5 (Homo sapiens, UniProt O95622); assay: AC assay, Gsα-stimulated mAC5 in membranes from transfected HEK293 cells; settings: 20µM fatty acid concentration
T4 construct: Human mAC genes were from GenScript and fitted with a C-terminal FLAG-tag; FLAG (C); made in house; host or cells: HEK293, permanently transfected; membrane preparation
Experimental: as §1, §2

mAC4 = target: T5, mAC4 (Homo sapiens, UniProt Q8NFM4); assay: AC assay, Gsα-stimulated mAC4 in membranes from transfected HEK293 cells
T5 construct: Human mAC genes were from GenScript and fitted with a C-terminal FLAG-tag; FLAG (C); made in house; host or cells: HEK293, permanently transfected; membrane preparation
T5 sequence (Q8NFM4 1-1077): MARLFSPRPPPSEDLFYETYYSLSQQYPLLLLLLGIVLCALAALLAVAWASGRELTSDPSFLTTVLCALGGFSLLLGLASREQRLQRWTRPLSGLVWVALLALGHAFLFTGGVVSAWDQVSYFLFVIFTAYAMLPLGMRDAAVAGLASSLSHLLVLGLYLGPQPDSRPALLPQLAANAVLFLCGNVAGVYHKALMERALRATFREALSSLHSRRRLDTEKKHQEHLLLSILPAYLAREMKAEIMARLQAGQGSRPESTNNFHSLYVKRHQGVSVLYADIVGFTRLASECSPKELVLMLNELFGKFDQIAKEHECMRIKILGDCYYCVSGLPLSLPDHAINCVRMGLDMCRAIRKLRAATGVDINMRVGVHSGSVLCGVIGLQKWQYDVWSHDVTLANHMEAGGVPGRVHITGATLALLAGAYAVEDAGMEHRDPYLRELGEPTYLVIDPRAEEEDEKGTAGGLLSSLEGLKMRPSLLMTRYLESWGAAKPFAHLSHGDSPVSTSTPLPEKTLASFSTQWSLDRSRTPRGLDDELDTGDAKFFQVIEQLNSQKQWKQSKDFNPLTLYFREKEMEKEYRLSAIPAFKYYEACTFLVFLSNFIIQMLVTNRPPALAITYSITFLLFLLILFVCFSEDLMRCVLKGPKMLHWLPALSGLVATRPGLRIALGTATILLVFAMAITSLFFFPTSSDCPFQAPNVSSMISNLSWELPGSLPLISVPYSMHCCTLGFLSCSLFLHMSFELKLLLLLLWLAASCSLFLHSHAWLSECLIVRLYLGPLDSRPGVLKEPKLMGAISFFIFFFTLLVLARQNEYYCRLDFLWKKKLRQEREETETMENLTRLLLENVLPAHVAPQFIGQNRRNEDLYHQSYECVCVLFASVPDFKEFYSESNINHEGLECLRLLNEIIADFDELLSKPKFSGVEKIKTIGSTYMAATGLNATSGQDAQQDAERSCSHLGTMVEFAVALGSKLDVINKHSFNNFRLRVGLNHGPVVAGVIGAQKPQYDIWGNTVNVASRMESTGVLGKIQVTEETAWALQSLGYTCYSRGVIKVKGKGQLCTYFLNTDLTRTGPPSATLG
Experimental: as §1, §2

mAC8 = target: T6, mAC8 (Homo sapiens, UniProt P40145); assay: AC assay, Gsα-stimulated mAC8 in membranes from transfected HEK293 cells; settings: 20µM fatty acid concentration
T6 construct: Human mAC genes were from GenScript and fitted with a C-terminal FLAG-tag; FLAG (C); made in house; host or cells: HEK293, permanently transfected; membrane preparation
Experimental: as §1, §2

mAC9 = target: T7, mAC9 (Homo sapiens, UniProt O60503); assay: AC assay, Gsα-stimulated mAC9 in membranes from transfected HEK293 cells; settings: 300 nM Gsα, single experiments
T7 construct: Human mAC genes were from GenScript and fitted with a C-terminal FLAG-tag; FLAG (C); made in house; host or cells: HEK293, permanently transfected; membrane preparation
Experimental: as §1, §2

mAC1 = target: T8, mAC1 (Homo sapiens, UniProt Q08828); assay: AC assay, Gsα-stimulated mAC1 in membranes from transfected HEK293 cells
T8 construct: Human mAC genes were from GenScript and fitted with a C-terminal FLAG-tag; FLAG (C); made in house; host or cells: HEK293, permanently transfected; membrane preparation
Experimental: as §1, §2

mAC6 = target: T9, mAC6 (Homo sapiens, UniProt O43306); assay: AC assay, Gsα-stimulated mAC6 in membranes from transfected HEK293 cells; settings: 20µM fatty acid concentration
T9 construct: Human mAC genes were from GenScript and fitted with a C-terminal FLAG-tag; FLAG (C); made in house; host or cells: HEK293, permanently transfected; membrane preparation
Experimental: as §1, §2

T9 sequence (O43306 whole entry): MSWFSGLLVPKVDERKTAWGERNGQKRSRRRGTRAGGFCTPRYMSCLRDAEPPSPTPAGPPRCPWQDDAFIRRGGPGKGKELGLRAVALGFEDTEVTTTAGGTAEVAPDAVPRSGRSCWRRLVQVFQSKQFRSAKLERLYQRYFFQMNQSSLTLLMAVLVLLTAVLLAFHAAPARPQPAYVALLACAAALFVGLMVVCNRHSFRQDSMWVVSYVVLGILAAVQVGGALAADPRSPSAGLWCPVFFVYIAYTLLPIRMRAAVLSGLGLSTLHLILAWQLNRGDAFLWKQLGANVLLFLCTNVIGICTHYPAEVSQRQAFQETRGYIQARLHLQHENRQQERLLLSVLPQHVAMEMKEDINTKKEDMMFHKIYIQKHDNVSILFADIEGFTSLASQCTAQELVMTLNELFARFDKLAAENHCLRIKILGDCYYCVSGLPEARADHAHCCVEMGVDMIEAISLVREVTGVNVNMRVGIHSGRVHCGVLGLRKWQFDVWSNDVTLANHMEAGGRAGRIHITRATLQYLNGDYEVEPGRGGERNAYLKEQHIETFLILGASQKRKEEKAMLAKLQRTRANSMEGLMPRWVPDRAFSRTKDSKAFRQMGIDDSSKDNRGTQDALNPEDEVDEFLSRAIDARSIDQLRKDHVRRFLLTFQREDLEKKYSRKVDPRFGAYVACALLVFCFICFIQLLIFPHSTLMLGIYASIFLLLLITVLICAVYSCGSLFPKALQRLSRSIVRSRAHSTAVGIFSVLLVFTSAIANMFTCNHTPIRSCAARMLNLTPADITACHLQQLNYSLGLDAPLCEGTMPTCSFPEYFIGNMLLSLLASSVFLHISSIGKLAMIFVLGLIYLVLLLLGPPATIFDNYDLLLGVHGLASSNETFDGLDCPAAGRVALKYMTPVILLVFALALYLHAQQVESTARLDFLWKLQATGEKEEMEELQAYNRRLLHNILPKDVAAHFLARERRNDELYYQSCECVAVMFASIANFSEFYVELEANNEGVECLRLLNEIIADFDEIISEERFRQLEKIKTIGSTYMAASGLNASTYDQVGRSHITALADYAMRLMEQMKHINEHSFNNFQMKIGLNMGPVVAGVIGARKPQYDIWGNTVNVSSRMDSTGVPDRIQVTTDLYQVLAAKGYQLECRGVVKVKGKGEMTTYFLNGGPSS
T2 sequence (Q08462 whole entry): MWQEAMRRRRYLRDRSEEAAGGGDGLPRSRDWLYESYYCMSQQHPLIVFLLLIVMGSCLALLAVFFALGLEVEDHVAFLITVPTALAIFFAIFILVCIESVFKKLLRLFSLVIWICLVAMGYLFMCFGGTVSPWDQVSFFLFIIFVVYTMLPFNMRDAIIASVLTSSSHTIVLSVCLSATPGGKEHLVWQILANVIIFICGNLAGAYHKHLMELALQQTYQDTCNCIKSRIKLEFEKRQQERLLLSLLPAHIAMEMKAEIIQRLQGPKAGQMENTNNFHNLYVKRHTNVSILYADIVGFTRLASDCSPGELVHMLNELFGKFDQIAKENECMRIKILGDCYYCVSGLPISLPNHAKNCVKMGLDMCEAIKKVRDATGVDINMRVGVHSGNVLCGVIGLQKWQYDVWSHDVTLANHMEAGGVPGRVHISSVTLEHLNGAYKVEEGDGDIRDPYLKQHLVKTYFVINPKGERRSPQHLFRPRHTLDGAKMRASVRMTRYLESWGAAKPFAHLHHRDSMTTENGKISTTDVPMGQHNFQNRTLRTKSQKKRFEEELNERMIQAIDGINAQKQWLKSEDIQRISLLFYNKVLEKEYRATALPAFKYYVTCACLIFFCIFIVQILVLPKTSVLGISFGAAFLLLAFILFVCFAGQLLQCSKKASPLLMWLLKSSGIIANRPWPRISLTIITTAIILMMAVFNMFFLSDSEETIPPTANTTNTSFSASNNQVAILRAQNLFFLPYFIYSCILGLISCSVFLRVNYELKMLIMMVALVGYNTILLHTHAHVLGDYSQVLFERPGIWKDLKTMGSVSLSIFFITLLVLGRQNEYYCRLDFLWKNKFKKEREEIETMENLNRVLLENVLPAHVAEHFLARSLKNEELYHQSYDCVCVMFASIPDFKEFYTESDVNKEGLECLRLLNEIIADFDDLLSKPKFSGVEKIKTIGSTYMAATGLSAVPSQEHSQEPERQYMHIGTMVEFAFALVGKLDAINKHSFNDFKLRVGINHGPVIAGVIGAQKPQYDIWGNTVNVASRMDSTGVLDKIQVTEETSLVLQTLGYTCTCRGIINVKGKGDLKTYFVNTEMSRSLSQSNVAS
T2 sequence (P63092 2-394 Q227L partner): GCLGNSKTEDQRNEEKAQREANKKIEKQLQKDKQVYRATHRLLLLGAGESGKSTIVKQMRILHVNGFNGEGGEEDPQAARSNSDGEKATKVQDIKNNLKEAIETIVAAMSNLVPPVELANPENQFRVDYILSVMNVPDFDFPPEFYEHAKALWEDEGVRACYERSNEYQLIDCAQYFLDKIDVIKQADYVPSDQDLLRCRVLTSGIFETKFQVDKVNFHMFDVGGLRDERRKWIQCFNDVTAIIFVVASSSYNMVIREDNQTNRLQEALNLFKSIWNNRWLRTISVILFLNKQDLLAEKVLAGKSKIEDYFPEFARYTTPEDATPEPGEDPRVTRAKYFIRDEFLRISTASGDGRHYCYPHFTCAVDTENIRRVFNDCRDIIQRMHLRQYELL
T6 sequence (P40145 whole entry): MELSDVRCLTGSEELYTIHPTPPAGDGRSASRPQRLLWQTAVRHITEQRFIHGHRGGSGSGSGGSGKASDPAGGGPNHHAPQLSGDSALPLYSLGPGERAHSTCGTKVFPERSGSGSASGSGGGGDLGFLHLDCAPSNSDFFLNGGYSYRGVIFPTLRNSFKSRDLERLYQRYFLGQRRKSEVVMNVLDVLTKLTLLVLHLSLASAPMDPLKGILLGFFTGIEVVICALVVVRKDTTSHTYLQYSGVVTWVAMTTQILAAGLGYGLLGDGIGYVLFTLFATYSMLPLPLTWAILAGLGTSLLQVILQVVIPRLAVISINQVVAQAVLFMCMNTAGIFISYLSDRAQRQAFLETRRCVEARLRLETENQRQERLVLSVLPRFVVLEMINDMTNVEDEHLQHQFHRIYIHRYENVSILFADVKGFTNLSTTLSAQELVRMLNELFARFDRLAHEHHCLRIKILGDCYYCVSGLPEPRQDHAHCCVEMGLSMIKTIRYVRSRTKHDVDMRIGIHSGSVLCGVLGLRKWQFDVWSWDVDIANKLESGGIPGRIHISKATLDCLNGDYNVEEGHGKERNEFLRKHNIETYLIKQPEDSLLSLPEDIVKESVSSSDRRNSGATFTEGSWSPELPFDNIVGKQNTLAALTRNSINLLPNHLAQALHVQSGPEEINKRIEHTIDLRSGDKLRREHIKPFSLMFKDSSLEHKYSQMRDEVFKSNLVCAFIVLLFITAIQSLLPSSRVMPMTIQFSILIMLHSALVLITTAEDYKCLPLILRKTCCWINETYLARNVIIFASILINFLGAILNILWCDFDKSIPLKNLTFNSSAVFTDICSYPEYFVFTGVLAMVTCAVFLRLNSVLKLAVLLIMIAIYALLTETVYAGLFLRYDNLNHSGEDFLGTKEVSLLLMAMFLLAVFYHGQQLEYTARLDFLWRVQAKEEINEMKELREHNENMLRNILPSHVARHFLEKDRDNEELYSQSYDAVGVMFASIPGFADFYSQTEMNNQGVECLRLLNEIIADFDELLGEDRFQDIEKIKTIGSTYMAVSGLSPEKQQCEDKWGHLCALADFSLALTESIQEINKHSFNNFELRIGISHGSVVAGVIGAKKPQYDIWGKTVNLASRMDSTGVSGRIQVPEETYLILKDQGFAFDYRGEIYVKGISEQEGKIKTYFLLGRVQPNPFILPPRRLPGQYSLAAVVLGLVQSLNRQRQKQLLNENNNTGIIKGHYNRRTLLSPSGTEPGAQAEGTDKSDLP
T3 sequence (P51828 whole entry): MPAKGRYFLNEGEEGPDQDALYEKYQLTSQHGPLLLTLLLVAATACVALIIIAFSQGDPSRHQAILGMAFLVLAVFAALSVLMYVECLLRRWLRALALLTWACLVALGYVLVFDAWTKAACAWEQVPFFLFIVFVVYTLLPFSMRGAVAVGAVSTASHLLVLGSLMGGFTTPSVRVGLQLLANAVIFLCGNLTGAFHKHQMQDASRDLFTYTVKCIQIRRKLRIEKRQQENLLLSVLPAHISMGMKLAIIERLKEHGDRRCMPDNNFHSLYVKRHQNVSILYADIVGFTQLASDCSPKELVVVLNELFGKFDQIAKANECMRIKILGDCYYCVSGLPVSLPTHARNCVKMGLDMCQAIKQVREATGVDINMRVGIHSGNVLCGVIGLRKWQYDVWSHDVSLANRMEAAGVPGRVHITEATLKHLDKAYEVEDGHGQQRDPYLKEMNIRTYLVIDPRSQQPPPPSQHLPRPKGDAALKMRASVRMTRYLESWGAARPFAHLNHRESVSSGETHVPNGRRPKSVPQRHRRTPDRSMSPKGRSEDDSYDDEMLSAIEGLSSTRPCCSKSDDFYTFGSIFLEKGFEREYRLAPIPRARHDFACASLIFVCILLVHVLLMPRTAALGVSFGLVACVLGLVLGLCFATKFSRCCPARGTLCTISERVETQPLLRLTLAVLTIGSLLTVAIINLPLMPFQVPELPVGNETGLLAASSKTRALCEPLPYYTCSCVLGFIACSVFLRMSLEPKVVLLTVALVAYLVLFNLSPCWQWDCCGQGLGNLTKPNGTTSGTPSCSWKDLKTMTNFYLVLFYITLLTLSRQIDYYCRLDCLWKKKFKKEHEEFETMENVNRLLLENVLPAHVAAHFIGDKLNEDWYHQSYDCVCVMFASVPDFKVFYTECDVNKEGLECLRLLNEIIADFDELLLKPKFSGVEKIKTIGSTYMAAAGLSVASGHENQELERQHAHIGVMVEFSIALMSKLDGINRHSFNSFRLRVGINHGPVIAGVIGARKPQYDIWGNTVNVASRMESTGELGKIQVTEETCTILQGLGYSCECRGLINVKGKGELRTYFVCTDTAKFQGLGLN
T3 sequence (P63092 2-394 Q227L partner): as the sequence (P63092 2-394 Q227L partner) above

SMILES	mAC3 activity [%] (100% = 300nM Gsα stimulation) (mAC3)	mAC2 activity [%] (100% = 300nM Gsα stimulation); 20µM fatty acid concentration (mAC2)	mAC7 activity [%] (100% = 300nM Gsα stimulation); 20µM fatty acid concentration (mAC7)	mAC5 activity [%] (100% = 300nM Gsα stimulation) (mAC5)	mAC4 activity [%] (100% = 300nM Gsα stimulation); 20µM fatty acid concentration (mAC4; 300 nM Gsα, single experiments)	mAC8 activity [%] (100% = 300nM Gsα stimulation) (mAC8)	mAC9 activity [%] (100% = 300nM Gsα stimulation); 20µM fatty acid concentration (mAC9; 20 µM fatty acid)	mAC1 activity [%] (100% = 300nM Gsα stimulation); 20µM fatty acid concentration (mAC1; 300 nM Gsα, single experiments)	mAC6 activity [%] (100% = 300nM Gsα stimulation) (mAC6)	Effect of lipid on 300 nM Gsα-stimulated mAC3 (mAC3)	mAC9 activity (%);(100% = Gsα stimulation) stimulated by 300nM Gsα (mAC9; 1 µM fatty acid)	also measured
CCCCCCCCCC(O)CCCCCCCC(=O)O (stereo not drawn) [9-HSA, 9-Hydroxystearic acid]	104% and 110%	89% and 75%	161% and 83%	100% and 102%	134% and 93%	67% and 108%	93% and 157%	95% and 93%	122% and 118%			
CCCCCCCCCCCCCCCCCC [Octadecane]	67% and 79%	74% and 87%	87% and 68%	82% and 128%	71% and 92%	129% and 109%	70% and 95%	96% and 100%	80% and 141%			
CCCCCC/C=C\CCCCCCCC(=O)O [Palmitoleic acid, Palmitoleic ((9Z)-hexadecenoic) acid]	151% and 133% and 248% and 259% and 116% and 136% and 292%	82% and 120% and 125%	91% and 107% and 128%	99% and 92% and 101%	58% and 74% and 53% and 64% and 83%	116% and 103% and 76%		56% and 77% and 83% and 82% and 92%	71% and 89% and 68%	less efficacious	136% and 130% and 125%	Effect of lipid on 300 nM Gsα-stimulated mAC4 (mAC4; 20 µM, in words): somewhat less; IC50 (mAC4; attenuation of 300 nM Gsα-stimulated activity, read-out: IC50 for mAC4): 20 µM; activity at 0.1 µM (mAC4; read-out: mAC4 activity (%);(100% = Gsα stimulation) stimulated by 300nM Gsα, 0.1 µM, 300 nM Gsα, single experiments (reference point, all 100)): 100%; activity at 25 µM (mAC4; read-out: mAC4 activity (%);(100% = Gsα stimulation) stimulated by 300nM Gsα, 25 µM, 300 nM Gsα, single experiments): 49%; activity at 50 µM (mAC4; read-out: mAC4 activity (%);(100% = Gsα stimulation) stimulated by 300nM Gsα, 50 µM, 300 nM Gsα, single experiments): 19%; activity at 60 µM (mAC4; read-out: mAC4 activity (%);(100% = Gsα stimulation) stimulated by 300nM Gsα, 60 µM, 300 nM Gsα, single experiments): 75%; activity at 100 µM (mAC4; read-out: mAC4 activity (%);(100% = Gsα stimulation) stimulated by 300nM Gsα, 100 µM, 300 nM Gsα, single experiments): 44%; IC50 (mAC1): 49 µM; activity at 1 µM (mAC1; 1 µM, 300 nM Gsα, single experiments, read-out: mAC1 activity (%);(100% = Gsα stimulation) stimulated by 300nM Gsα): 84%; activity at 6 µM (mAC1; 6 µM, 300 nM Gsα, single experiments, read-out: mAC1 activity (%);(100% = Gsα stimulation) stimulated by 300nM Gsα): 97%; Effect of lipid on 300 nM Gsα-stimulated mAC1 (mAC1; 20 µM, in words): somewhat less; activity at 25 µM (mAC1; 25 µM, 300 nM Gsα, single experiments, read-out: mAC1 activity (%);(100% = Gsα stimulation) stimulated by 300nM Gsα): 50%; activity at 50 µM (mAC1; 50 µM, 300 nM Gsα, single experiments, read-out: mAC1 activity (%);(100% = Gsα stimulation) stimulated by 300nM Gsα): 31%; activity at 0.1 µM (mAC1; read-out: mAC1 activity (%);(100% = Gsα stimulation) stimulated by 300nM Gsα, 0.1 µM, 300 nM Gsα, single experiments (reference point, all 100)): 100%
CCCCCCCCCCCCCC(=O)O [Myristic acid, Myristic (tetradecanoic) acid]	90% and 108% and 224% and 226%	102% and 121% and 90% and 101%	94% and 152% and 85% and 110%	105% and 80% and 76%	71% and 59% and 97%	119% and 130% and 99%	185% and 310% and 168% and 189% and 240%	91% and 96% and 101%	98% and 72% and 83%	no significant effect	82% and 122% and 127% and 109% and 126% and 137%	mAC9 activity (%);(100% = Gsα stimulation) stimulated by 300nM Gsα (mAC9; 3 µM fatty acid): 129% and 111% and 136% and 125%; mAC9 activity (%);(100% = Gsα stimulation) stimulated by 300nM Gsα (mAC9; 6 µM fatty acid): 104% and 129% and 178% and 179% and 144% and 168%; mAC9 activity (%);(100% = Gsα stimulation) stimulated by 300nM Gsα (mAC9; 10 µM fatty acid): 130% and 135% and 224% and 171% and 187% and 200% and 115%; mAC9 activity (%);(100% = Gsα stimulation) stimulated by 300nM Gsα (mAC9; 20 µM fatty acid): 168% and 189% and 240% and 185% and 310%
